Measured values from patent US20200405696A1, “INHIBITORS OF INDOLEAMINE 2,3-DIOXYGENASE AND/OR TRYPTOPHAN 2,3-DIOXYGENASE” (IDORSIA PHARMACEUTICALS LTD, priority 2018, published 2020).

What was measured:
[1] = target: T1, Recombinant full-length human IDO1 (Homo sapiens, UniProt P14902); assay: IDO1 enzymatic assay (NFK quantified by LCMS); assay type: biochemical; details: 2 nM enzyme, 5 μM L-tryptophan, pH6.5, 30 minutes pre-incubation at RT; mean values when measured multiple times; read-out: hIDO activity (IC50 in nM)
T1 construct: Recombinant full-length human IDO1 with a N-terminal hexahistidine tag; hexahistidine (His6) (N); made in house; host or cells: E. coli
T1 sequence (P14902 whole entry): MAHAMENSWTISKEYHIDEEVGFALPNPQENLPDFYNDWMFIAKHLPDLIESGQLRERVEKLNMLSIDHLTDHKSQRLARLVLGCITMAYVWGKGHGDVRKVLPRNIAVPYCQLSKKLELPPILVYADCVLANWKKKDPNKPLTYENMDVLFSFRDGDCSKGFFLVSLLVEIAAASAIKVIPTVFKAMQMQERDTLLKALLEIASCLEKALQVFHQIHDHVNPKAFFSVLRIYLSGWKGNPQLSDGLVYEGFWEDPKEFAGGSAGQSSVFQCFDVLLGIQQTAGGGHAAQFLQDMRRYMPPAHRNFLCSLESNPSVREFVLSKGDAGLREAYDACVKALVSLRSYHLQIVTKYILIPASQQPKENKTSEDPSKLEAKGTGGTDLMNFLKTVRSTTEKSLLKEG
In short: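 His-tagged human IDO1 (2 nM) in pH 6.5 phosphate buffer with ascorbate, methylene blue and catalase was preincubated with compound (10 μM–0.5 nM, 0.6% DMSO) for 30 min at RT. The reaction then ran with 5 μM L-Trp for 30 min. NFK was measured by LCMS against a d5-Trp standard, and IC50 was obtained by four-parameter fit.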

[2] = target: T2, Recombinant human TDO comprising amino acids 19-407 (Homo sapiens, UniProt P48775); assay: TDO2 enzymatic assay (NFK quantified by LCMS); assay type: biochemical; details: 15 nM enzyme, 200 μM L-tryptophan, pH7, 30 minutes pre-incubation at RT; mean values when measured multiple times; read-out: hTDO activity (IC50 in nM)
T2 construct: Recombinant human TDO comprising amino acids 19-407 with a N-terminal hexahistidine tag; hexahistidine (His6) (N); made in house; host or cells: E. coli
T2 sequence (P48775 19-406 limits assumed): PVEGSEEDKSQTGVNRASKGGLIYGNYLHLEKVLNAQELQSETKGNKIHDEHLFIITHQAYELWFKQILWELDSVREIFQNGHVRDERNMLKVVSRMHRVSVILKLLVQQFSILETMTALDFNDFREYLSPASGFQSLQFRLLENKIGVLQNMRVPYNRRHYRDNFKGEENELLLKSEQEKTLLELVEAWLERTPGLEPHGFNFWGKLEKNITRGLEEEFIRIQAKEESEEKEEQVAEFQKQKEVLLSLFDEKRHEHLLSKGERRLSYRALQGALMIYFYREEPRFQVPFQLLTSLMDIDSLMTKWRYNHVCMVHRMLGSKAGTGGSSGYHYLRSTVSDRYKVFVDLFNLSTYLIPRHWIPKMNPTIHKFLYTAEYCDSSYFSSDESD
In short: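 NFK formed over 30 min at RT from 200 μM L-tryptophan was measured by LCMS, normalized to d5-tryptophan, after compound (0.5 nM–10 μM, duplicates, 0.6% DMSO) was preincubated 30 min with 15 nM recombinant His-tagged TDO 19-407 in phosphate buffer pH 7. IC50 from four-parameter logistic fit; repeats averaged.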

IC50 [1] [nM] | IC50 [2] [nM] | Structure (SMILES)
7.12 | > 10200 | CC(C)(O)CCOc1ccc(-n2cc([C@H](O)c3c(C4CC4)sc4cncn34)nn2)cc1Cl [Example 277, 4-(2-Chloro-4-{4-[(R)-(2-cyclopropyl-imidazo[5,1-b]thiazol-3-yl)-hydroxy-methyl]-[1,2,3]triazol-1-yl}-phenoxy)-2-methyl-butan-2-ol]
79.6 | > 10200 | OC(c1cn(-c2ccccn2)nn1)c1c(C2CC2)sc2cncn12 (racemic) [Example 14, rac-(2-Cyclopropyl-imidazo[5,1-b]thiazol-3-yl)-(1-pyridin-2-yl-1H-[1,2,3]triazol-4-yl)-methanol]
13.1 | 4290 | CCc1sc2cncn2c1C(O)c1cn(-c2ccc(NC(C)=O)cc2)nn1 (racemic) [Example 110, rac-N-(4-{4-[(2-Ethyl-imidazo[5,1-b]thiazol-3-yl)-hydroxy-methyl]-[1,2,3]triazol-1-yl}-phenyl)-acetamide]
28.1 | > 10200 | OC(c1cn(-c2ccccc2)nn1)c1c(C2CC2)sc2cncn12 (racemic) [Example 2, rac-(2-Cyclopropyl-imidazo[5,1-b]thiazol-3-yl)-(1-phenyl-1H-[1,2,3]triazol-4-yl)-methanol]
5.37 | 2820 | CCc1sc2cncn2c1C(O)c1cn(-c2cc(F)c(O)cc2F)nn1 (racemic) [Example 332, rac-4-{4-[(2-Ethyl-imidazo[5,1-b]thiazol-3-yl)-hydroxy-methyl]-[1,2,3]triazol-1-yl}-2,5-difluoro-phenol]
71.3 | > 10200 | Oc1ccccc1Cn1cc(C(O)c2c(C3CC3)sc3cncn23)nn1 (racemic) [Example 305, rac-2-{4-[(2-Cyclopropyl-imidazo[5,1-b]thiazol-3-yl)-hydroxy-methyl]-[1,2,3]triazol-1-ylmethyl}-phenol]
11.4 | > 10200 | COc1ccc(-n2cc(C(O)c3c(C(F)(F)F)sc4cncn34)nn2)cc1 (racemic) [Example 134, rac-[1-(4-Methoxy-phenyl)-1H-[1,2,3]triazol-4-yl]-(2-trifluoromethyl-imidazo[5,1-b]thiazol-3-yl)-methanol]
15.5 | > 10200 | CCNC(=O)Nc1ccc(-n2cc(C(O)c3c(C4CC4)sc4cncn34)nn2)cc1OC (racemic) [Example 183, rac-1-(4-{4-[(2-Cyclopropyl-imidazo[5,1-b]thiazol-3-yl)-hydroxy-methyl]-[1,2,3]triazol-1-yl}-2-methoxy-phenyl)-3-ethyl-urea]
24 | 7110 | NC(=O)Nc1ccc(-n2cc(C(O)c3c(C4CC4)sc4cncn34)nn2)cc1 (racemic) [Example 109, rac-(4-{4-[(2-Cyclopropyl-imidazo[5,1-b]thiazol-3-yl)-hydroxy-methyl]-[1,2,3]triazol-1-yl}-phenyl)-urea]
639 | > 10200 | COc1cccc(-c2ccc(C(O)c3c(C4CC4)sc4cncn34)s2)c1 (racemic) [Example 167, rac-(2-Cyclopropyl-imidazo[5,1-b]thiazol-3-yl)-[5-(3-methoxy-phenyl)-thiophen-2-yl]-methanol]
50.4 | 8400 | Cc1sc2cncn2c1C(O)c1cn(-c2ccc3[nH]ccc3c2)nn1 (racemic) [Example 59, rac-[1-(1H-Indol-5-yl)-1H-[1,2,3]triazol-4-yl]-(2-methyl-imidazo[5,1-b]thiazol-3-yl)-methanol]
41.8 | 5060 | CCc1sc2cncn2c1C(O)c1cn(-c2cncc3ccccc23)nn1 (racemic) [Example 52, rac-(2-Ethyl-imidazo[5,1-b]thiazol-3-yl)-(1-isoquinolin-4-yl-1H-[1,2,3]triazol-4-yl)-methanol]
12.6 | > 10200 | OC(c1cn(-c2ccc(OCC3COC3)cc2)nn1)c1c(C2CC2)sc2cncn12 (racemic) [Example 88, rac-(2-Cyclopropyl-imidazo[5,1-b]thiazol-3-yl)-{1-[4-(oxetan-3-ylmethoxy)-phenyl]-1H-[1,2,3]triazol-4-yl}-methanol]
7.18 | > 10200 | CCc1sc2cncn2c1C(O)c1cn(-c2ccc(OCC3(F)COC3)c(Cl)c2)nn1 (racemic) [Example 317, rac-{1-[3-Chloro-4-(3-fluoro-oxetan-3-ylmethoxy)-phenyl]-1H-[1,2,3]triazol-4-yl}-(2-ethyl-imidazo[5,1-b]thiazol-3-yl)-methanol]
20.3 | > 10200 | N#Cc1ccc(-n2cc(C(O)c3c(C4CC4)sc4cncn34)nn2)cc1O (racemic) [Example 233, rac-4-{4-[(2-Cyclopropyl-imidazo[5,1-b]thiazol-3-yl)-hydroxy-methyl]-[1,2,3]triazol-1-yl}-2-hydroxy-benzonitrile]
189 | 1060 | OC(c1ccc(-c2ccncc2)s1)c1c(C2CC2)sc2cncn12 (racemic) [Example 168, rac-(2-Cyclopropyl-imidazo[5,1-b]thiazol-3-yl)-(5-pyridin-4-yl-thiophen-2-yl)-methanol]
7.77 | > 10200 | OC(c1cn(-c2ccc(OCC3(F)COC3)cc2)nn1)c1c(C2CC2)sc2cncn12 (racemic) [Example 145, rac-(2-Cyclopropyl-imidazo[5,1-b]thiazol-3-yl)-{1-[4-(3-fluoro-oxetan-3-ylmethoxy)-phenyl]-1H-[1,2,3]triazol-4-yl}-methanol]
45.6 | 6220 | CCc1sc2cncn2c1C(O)c1cn(-c2ccc3[nH]c(=O)[nH]c3c2)nn1 (racemic) [Example 112, rac-5-{4-[(2-Ethyl-imidazo[5,1-b]thiazol-3-yl)-hydroxy-methyl]-[1,2,3]triazol-1-yl}-1,3-dihydro-benzoimidazol-2-one]
93.3 | > 10200 | CCc1sc2cncn2c1C(O)c1cn(-c2ccc(C(=O)N3CCOCC3)cc2)nn1 (racemic) [Example 117, rac-(4-{4-[(2-Ethyl-imidazo[5,1-b]thiazol-3-yl)-hydroxy-methyl]-[1,2,3]triazol-1-yl}-phenyl)-morpholin-4-yl-methanone]
716 | > 10200 | OC(c1ccc(-c2cccc(C(F)(F)F)c2)s1)c1c(C2CC2)sc2cncn12 (racemic) [Example 165, rac-(2-Cyclopropyl-imidazo[5,1-b]thiazol-3-yl)-[5-(3-trifluoromethyl-phenyl)-thiophen-2-yl]-methanol]
260 | > 10200 | OC(c1ccc(-c2ccc3[nH]ccc3c2)s1)c1c(C2CC2)sc2cncn12 (racemic) [Example 176, rac-(2-Cyclopropyl-imidazo[5,1-b]thiazol-3-yl)-[5-(1H-indol-5-yl)-thiophen-2-yl]-methanol]
2.7 | 1040 | CCc1sc2cncn2c1[C@@H](O)c1cn(-c2ccc(NC(=O)OC)cc2)nn1 [Example 49a, (4-{4-[(R)-(2-Ethyl-imidazo[5,1-b]thiazol-3-yl)-hydroxy-methyl]-[1,2,3]triazol-1-yl}-phenyl)-carbamic acid methyl ester]
10.9 | 2110 | CCc1sc2cncn2c1C(O)c1cn(-c2ccc(NC(=O)OC)cc2)nn1 (racemic) [Example 49, rac-(4-{4-[(2-Ethyl-imidazo[5,1-b]thiazol-3-yl)-hydroxy-methyl]-[1,2,3]triazol-1-yl}-phenyl)-carbamic Acid Methyl Ester]
8.71 | > 10200 | Nc1ccc(-n2cc(C(O)c3c(C4CC4)sc4cncn34)nn2)cc1Cl (racemic) [Example 278, rac-[1-(4-Amino-3-chloro-phenyl)-1H-[1,2,3]triazol-4-yl]-(2-cyclopropyl-imidazo[5,1-b]thiazol-3-yl)-methanol]
133 | 9720 | CCc1sc2cncn2c1C(O)c1cn(-c2ccc(C(=O)NCCN(C)C)cc2)nn1 (racemic) [Example 119, rac-N-(2-Dimethylamino-ethyl)-4-{4-[(2-ethyl-imidazo[5,1-b]thiazol-3-yl)-hydroxy-methyl]-[1,2,3]triazol-1-yl}-benzamide]
17.5 | 2450 | O[C@@H](c1cnn(-c2ccccc2)c1)c1c(C2CC2)sc2cncn12 [Example 100a, (S)-(2-Cyclopropyl-imidazo[5,1-b]thiazol-3-yl)-(1-phenyl-1H-pyrazol-4-yl)-methanol]
6.31 | 4410 | Cc1c([C@H](O)c2c(C3CC3)sc3cncn23)nnn1-c1ccccc1 [Example 101a, (R)-(2-Cyclopropyl-imidazo[5,1-b]thiazol-3-yl)-(5-methyl-1-phenyl-1H-[1,2,3]triazol-4-yl)-methanol]
137 | > 10200 | COc1cc(C)c(-n2cc(C(O)c3c(C4CC4)sc4cncn34)nn2)c(C)c1 (racemic) [Example 311, rac-(2-Cyclopropyl-imidazo[5,1-b]thiazol-3-yl)-[1-(4-methoxy-2,6-dimethyl-phenyl)-1H-[1,2,3]triazol-4-yl]-methanol]
54.4 | 8410 | OC(c1cn(-c2ccccc2)nn1)c1c(C2CCCC2)sc2cncn12 (racemic) [Example 13, rac-(2-Cyclopentyl-imidazo[5,1-b]thiazol-3-yl)-(1-phenyl-1H-[1,2,3]triazol-4-yl)-methanol]
